Results on nine compounds are retold here after patent publication EP0179667B1, “N6-substituted adenosines” (priority 1984, dated 1986).

Data set [1] concerns Swiss-Webster male mice. Briefly: Mouse Activity and Screen Test Procedure (MAST): screen test (ST). The conditions noted are these: one hour postinjection. In kind it is in vivo. The text has this: The compounds of the invention are new chemical substances which are useful as pharmaceutical agents for the treatment of psychoses. The antipsychotic activity of representative compounds of the invention was established by the Mouse Activity and Screen Test Procedrue (MAST) described below.
Nine unfasted Swiss-Webster male mice weighing 20-30 g equally divided into three groups for each drug dose to be tested. That is, data for each dose level was generated by three separated groups of three mice each.
A minimum of three dose levels (10, 30, and 100 mg/kg) are tested for each drug. Treatments are administered intraperitoneally one hour prior to testing. All dosages are calculated as parent compound and given in volumes of 10 ml/kg. Compounds are dissolved or suspended in 0.2% Methocel. Control animals are injected with Methocel.
Testing: A two part testing procedure is started one hour postinjection. First, the screen test (ST) is performed (see Pharmac. Biochem. Behav. 6, 351-353, 1977). Briefly this test consists of placing mice on individual wire screens which are then rotated 180 degrees at the start of a 60 second observation period. The number of mice falling off the inverted screen is recorded.
Data: The data obtained from the screen test are expressed as percent of mice falling off the screen. Data derived from locomotor activity of drug treated mice are compared to the activity of vehicle treated animals and are expressed as percent inhibition of spontaneous locomotion. All percentages reported for inhibition of locomotion (LI) are based upon data accumulated for one hour. Both phases of testing are graded: A=60-100%; G=31-59%; and N=0-30%. An overall dose rating is obtained by the following criteria:
LAD refers to the lowest dose at which an A rating is achieved. […] Utilizing this procedure, an overall dose rating of A was obtained for the noted compound at the indicated dose. The compounds are identified in the Examples.

For data set [2], the target named is T1, adenosine A2 receptor (Rattus norvegicus, UniProt P30543).
T1 construct: 5 mg original tissue weight of rat weight of rat striatal membranes; tissue Pel-Freez (Rogers, Arkansas); host or cells: rat striatum, membrane preparation
T1 sequence (P30543 whole entry): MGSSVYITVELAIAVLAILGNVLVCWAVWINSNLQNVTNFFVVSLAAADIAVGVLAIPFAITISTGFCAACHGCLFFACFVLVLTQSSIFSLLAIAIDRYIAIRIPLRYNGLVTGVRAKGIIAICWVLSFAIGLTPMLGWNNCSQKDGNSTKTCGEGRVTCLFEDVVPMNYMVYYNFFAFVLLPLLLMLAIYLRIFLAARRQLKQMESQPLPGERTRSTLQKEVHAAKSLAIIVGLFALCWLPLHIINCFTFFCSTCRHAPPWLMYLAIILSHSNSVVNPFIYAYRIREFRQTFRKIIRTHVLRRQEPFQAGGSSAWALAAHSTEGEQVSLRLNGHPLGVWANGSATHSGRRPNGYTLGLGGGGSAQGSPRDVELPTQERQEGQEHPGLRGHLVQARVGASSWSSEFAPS
Briefly: Adenosine Receptor Binding - A2 Receptor Affinity (RBA2). The conditions noted are these: [3H]NECA, rat striatal membranes; read-out: RBA-2. On the procedure:
Adenosine Receptor Binding - A2 Receptor Affinity (RBA2)
Brains from 200-500 g mixed sex Sprague-Dawley rats were purchased from Pel-Freez (Rogers, Arkansas). […] Brains were thawed and then kept on ice while the striata were dissected out. […] When needed, tissue was thawed at room temperature, disrupted in a Polytron, and kept on ice until used.
All incubations were for 60 minutes at 25°C in 12x75 mm glass tubes containing 1 ml Tris with 5 mg original tissue weight of rat weight of rat striatal membranes, 4 nM [^3H]-N-ethyl adenosine-5'-carboxamide ([^3H]NECA), 50 nM N^6-cyclopentyladenosine (to eliminate A1 receptor binding), 10 mM MgCl2, 0.1 units/ml of adenosine deaminase and 1% dimethylsulfoxide. N^6-Cyclopentyladenosine was dissolved at 10 mM in 0.02 N HCI and diluted in Tris. […] Test compounds were dissolved at 10 mM in dimethylsulfoxide on the same day as the experiment, and diluted in dimethylsulfoxide to 100x the final incubation concentration. […] [^3H]NECA was diluted to 40 nM in Tris. The membrane suspension (5 mg/0.79 ml) contained sufficient MgC12 and adenosine deaminase to give 10 mM and 0.1 units/ml, respectively, final concentration in the incubation. For test compounds with lC50 values less than 1 µM, the order of additions was test compound (10 µl), N^6-cyclopentyladenosine (100 µl), [^3H]NECA (100 µl), and membranes (0.79 ml). […] After all additions, the rack of tubes was vortexed, and the tubes were then incubated for 60 min at 25°C in a shaking water bath. The rack of tubes was vortexed an additional time halfway through the incubation.
incubations were terminated by filtration through 2.4 cm GF/B filters under reduced pressure. Each tube was filtered as follows: the contents of the tube were poured onto the filter, 4 ml of ice-cold Tris were added to the tube and the contents poured onto the filter, and the filter was washed twice with 4 ml of ice-cold Tris. The filtration was complete in about twelve seconds.
Nonspecific binding was defined as binding in the presence of 100 µM N^6-cyclopentyladenosine, and specific binding was defined as total binding minus nonspecific binding. The IC50 was calculated by weighed nonlinear least squares curve-fitting to the mass-action equation. [formula] • where Y is cpm bound • T is cpm total binding without drug • S is cpm specific binding without drug • D is the concentration of drug • and K is the IC50 of the drug Weighting factors were calculated under the assumption that the standard deviation was proportional to the predicted value of Y. Nonspecific binding was treated as a very large (infinite) concentration of drug in the computer analysis.

Data set [3] has as its system Swiss-Webster male mice. Briefly: Mouse Activity and Screen Test Procedure (MAST): locomotor activity in actophotometer. In kind it is in vivo. The conditions noted are these: one hour prior to testing. On the procedure:
Nine unfasted Swiss-Webster male mice weighing 20-30 g equally divided into three groups for each drug dose to be tested. That is, data for each dose level was generated by three separated groups of three mice each. A minimum of three dose levels (10, 30, and 100 mg/kg) are tested for each drug. Treatments are administered intraperitoneally one hour prior to testing. All dosages are calculated as parent compound and given in volumes of 10 ml/kg. […] Control animals are injected with Methocel. […] The actophotometer consists of a cylindrical chamber whose center is occupied by another cylinder which contains the illumination for six photocells located on the perimeter of the chamber. Six light-beam interruptions equal one count. […] Data: The data obtained from the screen test are expressed as percent of mice falling off the screen. Data derived from locomotor activity of drug treated mice are compared to the activity of vehicle treated animals and are expressed as percent inhibition of spontaneous locomotion. All percentages reported for inhibition of locomotion (LI) are based upon data accumulated for one hour. […] An overall dose rating is obtained by the following criteria: LAD refers to the lowest dose at which an A rating is achieved. […] The compounds are identified in the Examples.

Take `COc1ccc2c(c1)C(Nc1ncnc3c1ncn3[C@H]1O[C@H](CO)[C@@H](O)[C@H]1O)CCC2` (stereo partly drawn) [Example 9, (S)-N^6-(7-methoxy-1-tetralinyl)-adenosine]: the values for the Screen test failure in data set [1] (3 mg/kg intraperitoneally), in data set [1] (10 mg/kg intraperitoneally) and in data set [1] (30 mg/kg intraperitoneally) were 11%, 0% and 11%, respectively. Besides, the IC50 in data set [2] is 50500 nM. The figures for the “Inhibition of mouse locomotor activity” value in data set [3] (3 mg/kg intraperitoneally), in data set [3] (10 mg/kg intraperitoneally) and in data set [3] (30 mg/kg intraperitoneally) were −35%, −11% and −3%, respectively.
As to `COc1cccc2c1CCC[C@@H]2Nc1ncnc2c1ncn2[C@@H]1O[C@H](CO)[C@@H](O)[C@H]1O` [Example 10, (S)-N^6-[5-methoxy-1-aminotetralin]-adenosine], the Screen test failure in data set [1] (0.3 mg/kg intraperitoneally) is given as 11%; in data set [1] (1 mg/kg intraperitoneally), 22%; in data set [1] (3 mg/kg intraperitoneally), 22%; in data set [1] (10 mg/kg intraperitoneally), 44%; in data set [1] (30 mg/kg intraperitoneally), 66%. For the same compound, the IC50 in data set [2] was 217 nM. In addition, the “Inhibition of mouse locomotor activity” value in data set [3] (0.3 mg/kg intraperitoneally) was −19%; in data set [3] (1 mg/kg intraperitoneally), 65%; in data set [3] (3 mg/kg intraperitoneally), 88%; in data set [3] (10 mg/kg intraperitoneally), 95%; in data set [3] (30 mg/kg intraperitoneally), 97%.
With `CC(=O)Oc1ccccc1C(=O)OC[C@H]1O[C@@H](n2cnc3c(NC4CCCc5ccccc54)ncnc32)[C@H](O)[C@@H]1O` (stereo partly shown) [Example 14, N^6-(1-tetralinyl)-5'-O-(O-acetylsalicoyl)adenosine], the Screen test failure is listed as 0% in data set [1] (1 mg/kg intraperitoneally), 0% in data set [1] (3 mg/kg intraperitoneally), 0% in data set [1] (10 mg/kg intraperitoneally) and 22% in data set [1] (30 mg/kg intraperitoneally). Besides, in data set [2], the IC50 is 57100 nM. In addition, the “Inhibition of mouse locomotor activity” value in data set [3] (1 mg/kg intraperitoneally) is on record as 54%; in data set [3] (3 mg/kg intraperitoneally), 69%; in data set [3] (10 mg/kg intraperitoneally), 94%; in data set [3] (30 mg/kg intraperitoneally) it was 94%.
Take `CC(=O)OC[C@H]1O[C@@H](n2cnc3c(NC4CCCc5ccccc54)ncnc32)[C@H](O)[C@@H]1O` (stereo partly shown) [Example 15, N^6-(1-tetralinyl)-5'-acetyl-adenosine]: the Screen test failure in data set [1] (0.3 mg/kg intraperitoneally) is on record as 11%; in data set [1] (1 mg/kg intraperitoneally) it was 22%; in data set [1] (3 mg/kg intraperitoneally) it was 22%; in data set [1] (10 mg/kg intraperitoneally), 55%; in data set [1] (30 mg/kg intraperitoneally), 55%. Moreover, the IC50 in data set [2] turned out to be 4440 nM. Further, the “Inhibition of mouse locomotor activity” value turned out to be 46% in data set [3] (0.3 mg/kg intraperitoneally); 87% in data set [3] (1 mg/kg intraperitoneally); 96% in data set [3] (3 mg/kg intraperitoneally); 98% in data set [3] (10 mg/kg intraperitoneally); 99% in data set [3] (30 mg/kg intraperitoneally).
Regarding `OC[C@H]1O[C@@H](n2cnc3c(NC4CCCc5c(O)cccc54)ncnc32)[C@H](O)[C@@H]1O` (stereo partly shown) [Example 16, N^6-[1-(5-hydroxy)-tetralinyl]-adenosine], the Screen test failure in data set [1] (3 mg/kg intraperitoneally), in data set [1] (10 mg/kg intraperitoneally) and in data set [1] (30 mg/kg intraperitoneally) was 0% throughout. Further, the IC50 in data set [2] is 260 nM. Also, the results for the “Inhibition of mouse locomotor activity” value in data set [3] (3 mg/kg intraperitoneally), in data set [3] (10 mg/kg intraperitoneally) and in data set [3] (30 mg/kg intraperitoneally) were −13%, 23% and 89%, respectively.
For `OC[C@H]1O[C@@H](n2cnc3c(NC4CCCc5ccc(O)cc54)ncnc32)[C@H](O)[C@@H]1O` (stereo partly shown) [Example 17], the Screen test failure came out at 0% in data set [1] (3 mg/kg intraperitoneally), 0% in data set [1] (10 mg/kg intraperitoneally) and 22% in data set [1] (30 mg/kg intraperitoneally). Further, the IC50 in data set [2] worked out at 238 nM. In addition, the “Inhibition of mouse locomotor activity” value in data set [3] (3 mg/kg intraperitoneally) is reported as 44%; in data set [3] (10 mg/kg intraperitoneally), 88%; in data set [3] (30 mg/kg intraperitoneally), 91%.
Consider `Cc1cc(C)c2c(c1)C(Nc1ncnc3c1ncn3[C@@H]1O[C@H](CO)[C@@H](O)[C@H]1O)CCC2` (stereo partly shown) [Example 18, N^6-[1-(5,7-dimethyl)-tetralinya]-adenosine], for which the Screen test failure is 11% in data set [1] (1 mg/kg intraperitoneally), 11% in data set [1] (3 mg/kg intraperitoneally), 0% in data set [1] (10 mg/kg intraperitoneally) and 0% in data set [1] (30 mg/kg intraperitoneally). Also, the IC50 in data set [2] was 366 nM. Moreover, the “Inhibition of mouse locomotor activity” value in data set [3] (1 mg/kg intraperitoneally) is 44%; in data set [3] (3 mg/kg intraperitoneally), 73%; in data set [3] (10 mg/kg intraperitoneally), 91%; in data set [3] (30 mg/kg intraperitoneally), 96%.
For `OC[C@H]1O[C@@H](n2cnc3c(NCC4CCc5ccccc54)ncnc32)[C@H](O)[C@@H]1O` (stereo partly shown) [Example 21, N^6-[2,3-dihydro-1H-inden-1-yl]methyladenosine], the Screen test failure in data set [1] (0.3 mg/kg intraperitoneally) was 0%; in data set [1] (1 mg/kg intraperitoneally), 0%; in data set [1] (3 mg/kg intraperitoneally) it was 0%; in data set [1] (10 mg/kg intraperitoneally), 22%; in data set [1] (30 mg/kg intraperitoneally) it was 55%. Also, the IC50 in data set [2] came to 99 nM. Besides, the “Inhibition of mouse locomotor activity” value in data set [3] (0.3 mg/kg intraperitoneally) was −19%; in data set [3] (1 mg/kg intraperitoneally) it was 23%; in data set [3] (3 mg/kg intraperitoneally), 61%; in data set [3] (10 mg/kg intraperitoneally), 82%; in data set [3] (30 mg/kg intraperitoneally) it was 99%.
On to `OC[C@H]1O[C@@H](n2cnc3c(NCC4=CCc5ccccc54)ncnc32)[C@H](O)[C@@H]1O` [Example 22, N^6-[1H-inden-3-yl]methyladenosine], for which the Screen test failure in data set [1] (0.1 mg/kg intraperitoneally) was 0%; in data set [1] (0.3 mg/kg intraperitoneally), 11%; in data set [1] (1 mg/kg intraperitoneally) it was 0%; in data set [1] (3 mg/kg intraperitoneally), 22%; in data set [1] (10 mg/kg intraperitoneally), 11%; in data set [1] (30 mg/kg intraperitoneally), 55%. Also, the IC50 in data set [2] amounted to 65.5 nM. The “Inhibition of mouse locomotor activity” value came out at 30% in data set [3] (0.1 mg/kg intraperitoneally); 38% in data set [3] (0.3 mg/kg intraperitoneally); 76% in data set [3] (1 mg/kg intraperitoneally); 76% in data set [3] (3 mg/kg intraperitoneally); 96% in data set [3] (10 mg/kg intraperitoneally); 97% in data set [3] (30 mg/kg intraperitoneally).
